Experimental data from paper PMC12736255, “Reinvestigating Pyrrol-2-One-Based Compounds: From Antimicrobial Agents to Promising Antitumor Candidates” (Pharmaceuticals, 2025).

What was measured:
Assay in all cases: NCI-60 single-dose screen
[1] = system: CAKI-1; type: cell-based; conditions: Homo sapiens; CAKI-1, 10^–5 M; read-out: GI (%)
Excerpt: (§1) In the next step, all synthesized compounds were electronically submitted and accepted for testing to the National Cancer Institute (NCI) platform, for the single dose (10^−5 M) screening against a panel of 60 human tumor cell lines, representing leukemia, melanoma, and cancers of the lung, colon, central nervous system, ovary, kidney, prostate, and breast. The results are summarized in Table 2, with the best values highlighted in red (Figures S1–S14).

[2] = system: SNB-19; type: cell-based; conditions: Homo sapiens; SNB-19, 10^–5 M; read-out: GI (%)
Excerpt: as §1

[3] = system: HT-29; type: cell-based; conditions: Homo sapiens; HT-29, 10^–5 M; read-out: GI (%)
Excerpt: as §1

[4] = system: NCI-H522; type: cell-based; conditions: Homo sapiens; NCI-H522, 10^–5 M; read-out: GI (%)
Excerpt: as §1

[5] = system: HCT-116; type: cell-based; conditions: Homo sapiens; HCT-116, 10^–5 M; read-out: GI (%)
Excerpt: as §1

[6] = system: MDA-MB-231/ATCC; type: cell-based; conditions: Homo sapiens, 10^–5 M, read-out: GI (%)
Excerpt: as §1

[7] = system: SW-620; type: cell-based; conditions: Homo sapiens; SW-620, 10^–5 M; read-out: GI (%)
Excerpt: as §1

[8] = system: SF-268; type: cell-based; conditions: Homo sapiens; SF-268, 10^–5 M; read-out: GI (%)
Excerpt: as §1

[9] = system: SF-539; type: cell-based; conditions: Homo sapiens; SF-539, 10^–5 M; read-out: GI (%)
Excerpt: as §1

[10] = system: HL-60(TB); type: cell-based; conditions: Homo sapiens, 10^–5 M, read-out: GI (%)
Excerpt: as §1

[11] = system: KM12; type: cell-based; conditions: Homo sapiens; KM12, 10^–5 M; read-out: GI (%)
Excerpt: as §1

[12] = system: HS 578T; type: cell-based; conditions: Homo sapiens, 10^–5 M, read-out: GI (%)
Excerpt: as §1

[13] = system: NCI/ADR-RES; type: cell-based; conditions: Homo sapiens, 10^–5 M, read-out: GI (%)
Excerpt: as §1

[14] = system: NCI-H23; type: cell-based; conditions: Homo sapiens; NCI-H23, 10^–5 M; read-out: GI (%)
Excerpt: as §1

[15] = system: SK-MEL-5; type: cell-based; conditions: Homo sapiens; SK-MEL-5, 10^–5 M; read-out: GI (%)
Excerpt: as §1

[16] = system: 786-0; type: cell-based; conditions: Homo sapiens; 786-0, 10^–5 M; read-out: GI (%)
Excerpt: as §1

[17] = system: NCI-H322M; type: cell-based; conditions: Homo sapiens, 10^–5 M, read-out: GI (%)
Excerpt: as §1

[18] = system: M14; type: cell-based; conditions: Homo sapiens; M14, 10^–5 M; read-out: GI (%)
Excerpt: as §1

[19] = system: A498; type: cell-based; conditions: Homo sapiens; A498, 10^–5 M; read-out: GI (%)
Excerpt: as §1

[20] = system: SK-MEL-2; type: cell-based; conditions: Homo sapiens; SK-MEL-2, 10^–5 M; read-out: GI (%)
Excerpt: as §1

[21] = system: MOLT-4; type: cell-based; conditions: Homo sapiens; MOLT-4, 10^–5 M; read-out: GI (%)
Excerpt: as §1

[22] = system: SK-OV-3; type: cell-based; conditions: Homo sapiens; SK-OV-3, 10^–5 M; read-out: GI (%)
Excerpt: as §1

[23] = system: SNB-75; type: cell-based; conditions: Homo sapiens; SNB-75, 10^–5 M; read-out: GI (%)
Excerpt: as §1

[24] = system: OVCAR-3; type: cell-based; conditions: Homo sapiens; OVCAR-3, 10^–5 M; read-out: GI (%)
Excerpt: as §1

[25] = system: MCF7; type: cell-based; conditions: Homo sapiens; MCF7, 10^–5 M; read-out: GI (%)
Excerpt: as §1

[26] = system: HOP-92; type: cell-based; conditions: Homo sapiens; HOP-92, 10^–5 M; read-out: GI (%)
Excerpt: as §1

[27] = system: T-47D; type: cell-based; conditions: Homo sapiens, T47D, 10^–5 M, read-out: GI (%)
Excerpt: as §1

[28] = system: LOX IMVI; type: cell-based; conditions: Homo sapiens, 10^–5 M, read-out: GI (%)
Excerpt: as §1

[29] = system: SN12C; type: cell-based; conditions: Homo sapiens, 10^–5 M, read-out: GI (%)
Excerpt: as §1

[30] = system: MDA-MB-435; type: cell-based; conditions: Homo sapiens; MDA-MB-435, 10^–5 M; read-out: GI (%)
Excerpt: as §1

[31] = system: COLO205; type: cell-based; conditions: Homo sapiens, COLO 205; COLO205, 10^–5 M; read-out: GI (%)
Excerpt: as §1

[32] = system: RPMI-8226; type: cell-based; conditions: Homo sapiens; RPMI-8226, 10^–5 M; read-out: GI (%)
Excerpt: as §1

[33] = system: HCT-15; type: cell-based; conditions: Homo sapiens; HCT-15, 10^–5 M; read-out: GI (%)
Excerpt: as §1

[34] = system: OVCAR-8; type: cell-based; conditions: Homo sapiens; OVCAR-8, 10^–5 M; read-out: GI (%)
Excerpt: as §1

[35] = system: UACC-257; type: cell-based; conditions: Homo sapiens; UACC-257, 10^–5 M; read-out: GI (%)
Excerpt: as §1

[36] = system: EKVX; type: cell-based, human; conditions: Homo sapiens, 10^–5 M, read-out: GI (%)
Excerpt: as §1

[37] = system: NCI-H226; type: cell-based, human; conditions: Homo sapiens; NCI-H226, 10^–5 M; read-out: GI (%)
Excerpt: as §1

O=C1C(Nc2ccc(I)cc2)=CC(c2ccccc2)N1c1ccc(I)cc1 (stereo not shown) [3a]
inhibition at 10 µM [1]: 3% | inhibition at 10 µM [2]: 8% | inhibition at 10 µM [3]: 0% | inhibition at 10 µM [4]: 50% | inhibition at 10 µM [5]: 14% | inhibition at 10 µM [6]: 0% | inhibition at 10 µM [7]: 0% | inhibition at 10 µM [8]: 16% | inhibition at 10 µM [9]: 12% | inhibition at 10 µM [10]: 0% | inhibition at 10 µM [11]: 8% | inhibition at 10 µM [12]: 71% | inhibition at 10 µM [13]: 0% | inhibition at 10 µM [14]: 6% | inhibition at 10 µM [15]: 1% | inhibition at 10 µM [16]: 17% | inhibition at 10 µM [17]: 17% | inhibition at 10 µM [18]: 0% | inhibition at 10 µM [19]: 16% | inhibition at 10 µM [20]: 26% | inhibition at 10 µM [21]: 2% | inhibition at 10 µM [22]: 8% | inhibition at 10 µM [23]: 15% | inhibition at 10 µM [24]: 1% | inhibition at 10 µM [25]: 44% | inhibition at 10 µM [26]: 0% | inhibition at 10 µM [27]: 34% | inhibition at 10 µM [28]: 18% | inhibition at 10 µM [29]: 23% | inhibition at 10 µM [30]: 0% | inhibition at 10 µM [31]: 0% | inhibition at 10 µM [32]: 100% | inhibition at 10 µM [33]: 19% | inhibition at 10 µM [34]: 15% | inhibition at 10 µM [35]: 13% | inhibition at 10 µM [36]: 37% | inhibition at 10 µM [37]: 4%

O=C1C(Nc2ccc(I)cc2)=CC(c2ccc(O)cc2)N1c1ccc(I)cc1 (stereo not shown) [3g]
inhibition at 10 µM [1]: 41% | inhibition at 10 µM [2]: 17% | inhibition at 10 µM [3]: 96% | inhibition at 10 µM [4]: 70% | inhibition at 10 µM [5]: 61% | inhibition at 10 µM [6]: 44% | inhibition at 10 µM [7]: 56% | inhibition at 10 µM [8]: 35% | inhibition at 10 µM [9]: 69% | inhibition at 10 µM [10]: 75% | inhibition at 10 µM [11]: 80% | inhibition at 10 µM [12]: 100% | inhibition at 10 µM [13]: 44% | inhibition at 10 µM [14]: 45% | inhibition at 10 µM [15]: 27% | inhibition at 10 µM [17]: 20% | inhibition at 10 µM [18]: 52% | inhibition at 10 µM [19]: 48% | inhibition at 10 µM [20]: 56% | inhibition at 10 µM [21]: 100% | inhibition at 10 µM [22]: 25% | inhibition at 10 µM [23]: 77% | inhibition at 10 µM [24]: 59% | inhibition at 10 µM [25]: 83% | inhibition at 10 µM [26]: 66% | inhibition at 10 µM [27]: 80% | inhibition at 10 µM [28]: 44% | inhibition at 10 µM [29]: 60% | inhibition at 10 µM [30]: 38% | inhibition at 10 µM [31]: 42% | inhibition at 10 µM [32]: 100% | inhibition at 10 µM [33]: 84% | inhibition at 10 µM [34]: 31% | inhibition at 10 µM [35]: 42% | inhibition at 10 µM [36]: 64% | inhibition at 10 µM [37]: 47%

COc1ccccc1C1C=C(Nc2ccc(I)cc2)C(=O)N1c1ccc(I)cc1 (stereo not shown) [3i]
inhibition at 10 µM [1]: 28% | inhibition at 10 µM [2]: 0% | inhibition at 10 µM [3]: 5% | inhibition at 10 µM [4]: 37% | inhibition at 10 µM [5]: 3% | inhibition at 10 µM [6]: 25% | inhibition at 10 µM [7]: 14% | inhibition at 10 µM [8]: 24% | inhibition at 10 µM [9]: 31% | inhibition at 10 µM [10]: 0% | inhibition at 10 µM [11]: 9% | inhibition at 10 µM [12]: 84% | inhibition at 10 µM [13]: 3% | inhibition at 10 µM [14]: 30% | inhibition at 10 µM [15]: 4% | inhibition at 10 µM [17]: 0% | inhibition at 10 µM [18]: 10% | inhibition at 10 µM [19]: 6% | inhibition at 10 µM [20]: 44% | inhibition at 10 µM [21]: 17% | inhibition at 10 µM [22]: 19% | inhibition at 10 µM [23]: 37% | inhibition at 10 µM [24]: 46% | inhibition at 10 µM [25]: 50% | inhibition at 10 µM [26]: 20% | inhibition at 10 µM [27]: 39% | inhibition at 10 µM [28]: 2% | inhibition at 10 µM [29]: 20% | inhibition at 10 µM [30]: 0% | inhibition at 10 µM [31]: 0% | inhibition at 10 µM [32]: 32% | inhibition at 10 µM [33]: 13% | inhibition at 10 µM [34]: 17% | inhibition at 10 µM [35]: 13% | inhibition at 10 µM [36]: 49% | inhibition at 10 µM [37]: 36%
